Among the data in ChEMBL document CHEMBL1146805, “Carbonic anhydrase inhibitors. Inhibition of cytosolic isozyme XIII with aromatic and heterocyclic sulfonamides: a novel target for the drug design” (Bioorg Med Chem Lett, 2004) are Ki values, retold here.

Sequence of Carbonic anhydrase 13 (Q9D6N1 whole entry): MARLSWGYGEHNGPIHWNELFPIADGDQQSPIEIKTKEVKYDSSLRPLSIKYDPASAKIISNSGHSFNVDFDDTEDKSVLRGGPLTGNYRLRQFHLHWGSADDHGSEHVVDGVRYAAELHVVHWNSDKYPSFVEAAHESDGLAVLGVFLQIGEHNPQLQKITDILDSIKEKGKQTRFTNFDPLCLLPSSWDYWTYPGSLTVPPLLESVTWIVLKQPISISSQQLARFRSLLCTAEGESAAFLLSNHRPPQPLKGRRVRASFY

The experiment concerns the target Carbonic anhydrase 13 (Mus musculus, UniProt Q9D6N1).
Description: Inhibitory activity against murine carbonic anhydrase XIII (mCA XIII) by using CO2 hydrase assay method
By Ki is commonly meant a measure of affinity in units of concentration, obtained from inhibition or displacement. A lower Ki goes with a stronger hold on the target. As to `Nc1ccc(S(=O)(=O)NCc2ccc(S(N)(=O)=O)cc2)cc1`, the inhibition constant (Ki) worked out at 1.9 nM. That is a single-digit nanomolar value.
As to `Nc1ccc(S(N)(=O)=O)cc1I`, the Ki is 50 nM.
To `Nc1ccc(S(=O)(=O)Nc2ccc(S(N)(=O)=O)cc2)cc1` belongs 2.4 nM; to `Nc1ccccc1S(N)(=O)=O`, 43 nM.
In turn, `Nc1ccc(S(N)(=O)=O)cc1Br` had a Ki of 54 nM.
The same measure for `Nc1ccc(S(N)(=O)=O)cc1F`: 50 nM.
To `NCCc1ccc(S(N)(=O)=O)cc1` belongs 43 nM; to `Nc1ccc(S(N)(=O)=O)cc1Cl`, 56 nM.
The same measure for `Nc1ccc(S(=O)(=O)NCCc2ccc(S(N)(=O)=O)cc2)cc1`: 1.3 nM.
`NCc1ccc(S(N)(=O)=O)cc1` [MAFENIDE]: the inhibitory constant (Ki) came to 41 nM.
In turn, `Nc1ccc(S(N)(=O)=O)cc1` [SULFANILAMIDE] yielded a Ki of 32 nM.
